Test results: publication PMC6268995, “(E)-5-Styryl-1H-indole and (E)-6-Styrylquinoline Derivatives Serve as Probes for β-Amyloid Plaques” (Molecules, 2012)
Entries after “also recorded” stand apart in the source; their conditions may differ. Where two headings read alike, the source gives them in different places.

How the values were obtained:
Aβ1–40 aggregates [1] = biological target: T1, Aβ1–40 aggregates (Homo sapiens, UniProt P05067); experiment: Competition binding assay on Aβ1–40 aggregates using [125I]TZDM as radio-ligand; conditions: Aβ1–40 aggregates against [125I]TZDM; triplicate, mean ± SD
T1 construct: β-amyloid(1–40) were purchased from AnaSpec; purchased AnaSpec (San Jose, CA, USA)
T1 sequence (P05067 672-711 limits assumed): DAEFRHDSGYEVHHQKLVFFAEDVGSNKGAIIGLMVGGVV
Method: The lyophilized white powder of β-amyloid(1–40) were purchased from AnaSpec (San Jose, CA, USA). After reconstituted by adding basic buffer (1% NH4OH. 60–70 μL) to β-amyloid (1–40) (1 mg) aggregation of Aβ1–40 was carried out by gently dissolving Aβ1–40 (0.25 mg/mL) in a PBS buffer (pH 7.4). The solution was incubated at 37 °C for 72 h with gentle and constant shaking. Binding studies were carried out according to the procedure described previously with some modifications using [^125I]TZDM as the radiolabeled standard. […] The mixture was incubated at 37 °C for 2 h. […] Filters containing the bound ^125I ligand were counted in a γ-counter (WALLAC Wizard 1470, PerkinElmer Life Sciences, Waltham, MA, USA) with 75% counting efﬁciency. The IC50 values were determined using GraphPad Prism 5.0, and those for the inhibition constant (Ki) were calculated using the Cheng Prusoff equation: Ki = IC50/(1 + [L]/Kd).

Aβ1–40 aggregates [2] = biological target: T1, Aβ1–40 aggregates; parameters: method as in PMID 11384236; conditions: literature value ref 21; cited from earlier work
[3] = Partition coefficient determination (n-octanol/PBS); assay type: physicochemical; conditions: n-octanol / PBS 0.02 M, pH 7.4
Method: The determination of partition coefﬁcients of [^125I]8 and [^125I]17 was performed according to the procedure previously reported with some modifications. Ligand [^125I]8 or [^125I]17 (~5 μCi) was mixed with 3 mL each of n-octanol and PBS (0.02 M, pH 7.4) in a test tube. The test tube was vortexed for 5 min at room temperature, followed by centrifugation for 10 min at 3,000 rpm. Two weighed samples from the n-octanol (50 µL) and buffer layers (400 µL) were counted in a γ-counter. The partition coefﬁcient was expressed as the logarithm of the ratio of the counts per gram from n-octanol versus that of PBS. Samples from the n-octanol layer were repartitioned until consistent partition coefﬁcient values were obtained. The measurements were done in triplicate and repeated three times.

[4] = In vivo biodistribution in normal mice; parameters: species or system KunMing normal mice; conditions: for Biodistribution Blood / Biodistribution Brain / Biodistribution Heart / Biodistribution Kidney / Biodistribution Liver / Biodistribution Lung / Biodistribution Muscle / Biodistribution Spleen / Biodistribution Stomach: iv injection
Method: In vivo biodistribution studies were performed in KunMing normal mice (female, average weight 18–22 g) and in accordance with the national laws related to the care and experiments on laboratory animal. A saline solution (100 µL) containing [^125I]8 or [^125I]17 (1 µCi) was injected directly into the tail vein of mice. The mice (n = 5 for each time point) were sacriﬁced at designated time points post-injection. The organs of interest were removed and weighed, and the radioactivity was counted with an automatic γ-counter (WALLAC Wizard 1470).

Aβ plaques = Aβ plaques (Homo sapiens, UniProt P05067); experiment: In vitro labeling of brain sections from transgenic mouse by autoradiography; assay type: binding, transgenic model mouse (APP/PS1); conditions: APP/PS1, 12 months, male
Aβ plaques, sequence (P05067 672-711 limits assumed): as above
Method: The brain sections mentioned above were incubated with [^125I]8 (5 µCi/100µL) for about 20 min at room temperature. Then the sections were washed with saturated Li2CO3 in 40% EtOH for 3 min and 40% EtOH for 3 min, followed by rinsing with water for 30 s. After drying, the ^125I-labeled sections were exposed to phosphorus ﬁlm for 8 h and then scanned with the phosphor imaging system (Cyclone, Packard) at the resolution of 600 dpi. The presence and localization of plaques were confirmed by the ﬂuorescent staining with thioﬂavin-S on the same sections using a Stereo Discovery V12 (Zeiss) instrument equipped with a LP 505 filter set (excitation: 405 nm).

CN(C)c1ccc(-c2nc3ccc(I)cc3s2)cc1 [TZDM, reference compound]
Ki (Aβ1–40 aggregates [1]): 4.2 ± 0.4 nM | Ki (Aβ1–40 aggregates [2]): 0.9 ± 0.2 nM

[125I]c1ccc(/C=C/c2ccc3[nH]ccc3c2)cc1 [[^125I]8]
logD [3]: 2.52 | brain2min/brain60min ratio ([4]; index of washout rate from normal brain): 15.3 | Biodistribution Blood ([4]; 2 min): 11.91 ± 0.62 % ID/g | Biodistribution Brain ([4]; 2 min): 4.27 ± 0.49 % ID/g | Biodistribution Heart ([4]; 2 min): 5.76 ± 0.38 % ID/g | Biodistribution Kidney ([4]; 2 min): 11.66 ± 1.52 % ID/g | Biodistribution Liver ([4]; 2 min): 14.73 ± 0.66 % ID/g | Biodistribution Lung ([4]; 2 min): 10.76 ± 0.63 % ID/g | Biodistribution Muscle ([4]; 2 min): 2.64 ± 0.40 % ID/g | Biodistribution Spleen ([4]; 2 min): 4.38 ± 0.33 % ID/g | Biodistribution Stomach ([4]; 2 min): 1.23 ± 0.56 % ID/organ | Biodistribution Blood ([4]; 15 min): 12.29 ± 1.30 % ID/g | Biodistribution Brain ([4]; 15 min): 1.37 ± 0.16 % ID/g | Biodistribution Heart ([4]; 15 min): 3.70 ± 0.40 % ID/g | Biodistribution Kidney ([4]; 15 min): 14.89 ± 4.23 % ID/g | Biodistribution Liver ([4]; 15 min): 10.66 ± 0.31 % ID/g | Biodistribution Lung ([4]; 15 min): 8.22 ± 0.88 % ID/g | Biodistribution Muscle ([4]; 15 min): 2.01 ± 0.24 % ID/g | Biodistribution Spleen ([4]; 15 min): 4.21 ± 0.26 % ID/g | Biodistribution Stomach ([4]; 15 min): 4.82 ± 0.46 % ID/organ | Biodistribution Blood ([4]; 30 min): 7.64 ± 0.62 % ID/g | Biodistribution Brain ([4]; 30 min): 0.64 ± 0.11 % ID/g | Biodistribution Heart ([4]; 30 min): 2.55 ± 0.52 % ID/g | Biodistribution Kidney ([4]; 30 min): 9.46 ± 1.95 % ID/g | Biodistribution Liver ([4]; 30 min): 7.14 ± 1.13 % ID/g | Biodistribution Lung ([4]; 30 min): 5.39 ± 0.83 % ID/g | Biodistribution Muscle ([4]; 30 min): 1.25 ± 0.04 % ID/g | Biodistribution Spleen ([4]; 30 min): 3.44 ± 0.21 % ID/g | Biodistribution Stomach ([4]; 30 min): 3.50 ± 0.19 % ID/organ | Biodistribution Blood ([4]; 60 min): 4.49 ± 0.28 % ID/g | Biodistribution Brain ([4]; 60 min): 0.28 ± 0.06 % ID/g | Biodistribution Heart ([4]; 60 min): 1.59 ± 0.28 % ID/g | Biodistribution Kidney ([4]; 60 min): 4.65 ± 0.98 % ID/g | Biodistribution Liver ([4]; 60 min): 4.45 ± 0.23 % ID/g | Biodistribution Lung ([4]; 60 min): 3.28 ± 0.10 % ID/g | Biodistribution Muscle ([4]; 60 min): 0.81 ± 0.12 % ID/g | Biodistribution Spleen ([4]; 60 min): 2.44 ± 0.12 % ID/g | Biodistribution Stomach ([4]; 60 min): 1.72 ± 0.21 % ID/organ | Biodistribution Blood ([4]; 120 min): 2.93 ± 0.30 % ID/g | Biodistribution Brain ([4]; 120 min): 0.20 ± 0.08 % ID/g | Biodistribution Heart ([4]; 120 min): 1.47 ± 0.48 % ID/g | Biodistribution Kidney ([4]; 120 min): 1.93 ± 0.76 % ID/g | Biodistribution Liver ([4]; 120 min): 4.19 ± 0.61 % ID/g | Biodistribution Lung ([4]; 120 min): 2.30 ± 0.20 % ID/g | Biodistribution Muscle ([4]; 120 min): 0.61 ±0.24 % ID/g | Biodistribution Spleen ([4]; 120 min): 1.87 ± 0.28 % ID/g | Biodistribution Stomach ([4]; 120 min): 3.48 ± 0.79 % ID/organ | Biodistribution Blood ([4]; 240 min): 1.50 ± 0.13 % ID/g | Biodistribution Brain ([4]; 240 min): 0.10 ± 0.02 % ID/g | Biodistribution Heart ([4]; 240 min): 0.65 ± 0.16 % ID/g | Biodistribution Kidney ([4]; 240 min): 1.34 ± 0.36 % ID/g | Biodistribution Liver ([4]; 240 min): 3.06 ± 0.36 % ID/g | Biodistribution Lung ([4]; 240 min): 1.43 ± 0.52 % ID/g | Biodistribution Muscle ([4]; 240 min): 0.35 ± 0.09 % ID/g | Biodistribution Spleen ([4]; 240 min): 1.37 ± 0.09 % ID/g | Biodistribution Stomach ([4]; 240 min): 2.31 ± 1.44 % ID/organ | Autoradiography labeling of Aβ plaques (Aβ plaques): intense and specific labeling of Aβ plaques; also recorded: excellent labeling of Aβ plaques in the cortex region; also recorded: clearly labeled amyloid plaques in the cortex region
